In brackets after ≈: the same amount, converted by molar mass.
Legend:
[1] = Plasma pharmacokinetics of NBI-34060 (half-life, volume of distribution); type: in vivo, human
Source text: The mean plasma half-life of a sedative-hypnotic compound may be determined using well known techniques. Terminal half-life may be determined using standard pharmacokinetic calculations, such as those presented by Rolland and Tozer (Clinical Pharmacokinetics Concepts and Applications, 3rd. Ed., Chap. 3, 1995). in addition, software is commercially available which performs this calculation, such as the product sold under the tradename “WinNinlin™”(Prof. Ver. 1.5). […] This is estimated by linear regression analysis of the time vs. log concentration of the test compound.
In this experiment, commercially available plasma profiling software (GastroPlus™) (Simulations Plus Inc., CA.) was used to simulate the effects of varying controlled release profiles and pharmacokinetic parameters based on in vivo plasma concentrations of NBI-34060 as measured in 12-healthy male human subjects. […] This assumed that the lower CL drug would distribute to the same tissues as the higher CL drug, so that all half-life changes were because of differences in metabolism and/or renal clearance rather than in volumes. Two oral plasma concentration-time files were created (NBI-Target-Hi.opd and NBI-Target-Lo.opd) with plasma concentration-time points serving as targets (shown as a square in FIGS. 2, 3, 4 and 5). The requirements for Tmax2 for the high target was set at 100% of Tmax1.

CC(=O)N(C)c1cccc(-c2ccnc3c(C(=O)c4cccs4)cnn23)c1 [NBI-34060, N-methyl-N-(3-{3-[2-thienylcarbonyl]-pyrazolo-[1,5-a]-pyrimidin-7-yl}-phenyl)acetamide]
half-life ([1]; male, human, plasma half-life): ~1.3 h
Vd ([1]; one-compartment pharmacokinetic model, based on in vivo plasma concentrations in 12 healthy male human subjects): 159 L
resulting pH (Solubility in water; pH of the solution in water at approximately 20-30 μg/ml): approximately 8.0
solubility (Solubility in water; water, pH 8, water): 20 to 30 µg/mL (≈ 53.1 to 79.7 µM)
